Laboratory results: patent US8906925B2, “Pyrido[4,3-B]indoles containing rigid moieties” (Medivation Technologies, Inc., priority 2008, dated 2014)

How the values were obtained:
[1] = molecular target: T1, human recombinant serotonin (5-Hydroxytryptamine) 5-HT6 receptor (Homo sapiens, UniProt P50406); assay: Serotonin 5-HT6 radioligand binding ([3H]LSD); details: compound at 0.1 μM; read-out: Inhibition of ligand binding, Serotonin 5-HT6 (percent inhibition of specific binding)
T1 construct: expressed in transfected cells; host or cells: human HeLa cells
T1 sequence (P50406 whole entry): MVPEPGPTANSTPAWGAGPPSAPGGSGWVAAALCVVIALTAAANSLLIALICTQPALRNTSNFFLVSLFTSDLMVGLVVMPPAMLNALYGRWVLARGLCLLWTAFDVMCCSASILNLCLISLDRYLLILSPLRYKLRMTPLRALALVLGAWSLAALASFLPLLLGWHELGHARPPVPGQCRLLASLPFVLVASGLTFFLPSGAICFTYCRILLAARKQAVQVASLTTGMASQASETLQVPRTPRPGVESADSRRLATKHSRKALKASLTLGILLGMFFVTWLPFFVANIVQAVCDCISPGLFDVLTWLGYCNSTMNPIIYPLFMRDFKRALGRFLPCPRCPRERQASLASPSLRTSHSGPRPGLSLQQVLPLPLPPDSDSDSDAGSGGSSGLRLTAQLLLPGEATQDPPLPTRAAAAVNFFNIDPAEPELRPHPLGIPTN
Description: Compounds of the invention were incubated with 1.5 nM [3H]Lysergic acid diethylamide (LSD) for 120 min. at 37° C. […] Receptor proteins were filtered and washed, the filters were then counted to determine [3H]LSD specifically bound. Compounds were screened at 1 μM or lower, using 1% DMSO as vehicle. Biochemical assay results are presented as the percent inhibition of specific binding in Table 10.

histamine receptor H1 = histamine receptor H1 (Homo sapiens, UniProt P35367); assay: Histamine H1 radioligand binding ([3H]Pyrilamine); details: read-out: Histamine Binding (1 μM) H1, percent inhibition of specific binding, 1 μM
histamine receptor H1, sequence (P35367 whole entry): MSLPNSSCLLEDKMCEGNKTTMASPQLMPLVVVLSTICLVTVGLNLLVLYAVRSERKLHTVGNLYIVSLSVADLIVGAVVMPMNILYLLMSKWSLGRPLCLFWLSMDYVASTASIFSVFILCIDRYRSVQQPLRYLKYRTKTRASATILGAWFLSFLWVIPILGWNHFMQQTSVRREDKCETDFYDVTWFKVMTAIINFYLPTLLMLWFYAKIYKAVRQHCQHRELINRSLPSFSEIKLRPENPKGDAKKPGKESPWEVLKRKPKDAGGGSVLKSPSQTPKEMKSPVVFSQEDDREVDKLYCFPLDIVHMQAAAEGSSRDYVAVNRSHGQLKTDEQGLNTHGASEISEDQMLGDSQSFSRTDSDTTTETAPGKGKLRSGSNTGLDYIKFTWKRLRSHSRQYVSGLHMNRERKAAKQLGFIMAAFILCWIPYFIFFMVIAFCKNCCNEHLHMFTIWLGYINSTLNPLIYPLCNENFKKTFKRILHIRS
In short: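 Values are percent inhibition of specific [3H]pyrilamine (1.2 nM) binding with compounds at ≤1 μM (1% DMSO vehicle); 180 min incubation at 25 °C, pH 7.4 Tris buffer, on CHO-expressed human H1 receptor; 1 μM pyrilamine defined nonspecific binding, bound ligand counted after filtration.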

[2] = molecular target: T2, human recombinant serotonin (5-Hydroxytryptamine) 5-HT2A receptor (Homo sapiens, UniProt P28223); assay: Serotonin 5-HT2A radioligand binding ([3H]Ketanserin); details: read-out: Inhibition of ligand binding, Serotonin 5-HT2A (percent inhibition of specific binding), compound at 0.1 μM
T2 construct: expressed in transfected cells; host or cells: Chinese hamster ovary (CHO-K1) cells
T2 sequence (P28223 whole entry): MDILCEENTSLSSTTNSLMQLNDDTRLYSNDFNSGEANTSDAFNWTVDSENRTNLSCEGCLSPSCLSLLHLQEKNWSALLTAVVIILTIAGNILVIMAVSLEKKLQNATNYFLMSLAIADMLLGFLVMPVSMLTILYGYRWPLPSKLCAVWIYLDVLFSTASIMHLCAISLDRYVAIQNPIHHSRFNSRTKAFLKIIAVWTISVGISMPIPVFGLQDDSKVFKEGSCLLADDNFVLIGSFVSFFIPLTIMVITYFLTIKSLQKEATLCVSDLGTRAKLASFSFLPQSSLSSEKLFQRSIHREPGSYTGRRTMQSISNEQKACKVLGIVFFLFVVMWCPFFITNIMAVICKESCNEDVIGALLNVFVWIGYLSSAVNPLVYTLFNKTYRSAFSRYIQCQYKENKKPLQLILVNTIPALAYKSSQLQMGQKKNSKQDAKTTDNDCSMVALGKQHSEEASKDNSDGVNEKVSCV
Description: Compounds of the invention were incubated with 0.5 nM [^3H]Ketanserin for 60 min. at 25° C. Non-specific binding was estimated in the presence of 1 μM Mianserin. Receptor proteins were filtered and washed, the filters were then counted to determine [^3H]Ketanserin specifically bound.

[3] = molecular target: human recombinant serotonin (5-Hydroxytryptamine) 5-HT7 receptor (Homo sapiens, UniProt P34969); assay: Serotonin 5-HT7 radioligand binding ([3H]LSD); details: compound at 0.1 μM; read-out: Inhibition of ligand binding, Serotonin 5-HT7 (percent inhibition of specific binding)
human recombinant serotonin (5-Hydroxytryptamine) 5-HT7 receptor, sequence (P34969 whole entry): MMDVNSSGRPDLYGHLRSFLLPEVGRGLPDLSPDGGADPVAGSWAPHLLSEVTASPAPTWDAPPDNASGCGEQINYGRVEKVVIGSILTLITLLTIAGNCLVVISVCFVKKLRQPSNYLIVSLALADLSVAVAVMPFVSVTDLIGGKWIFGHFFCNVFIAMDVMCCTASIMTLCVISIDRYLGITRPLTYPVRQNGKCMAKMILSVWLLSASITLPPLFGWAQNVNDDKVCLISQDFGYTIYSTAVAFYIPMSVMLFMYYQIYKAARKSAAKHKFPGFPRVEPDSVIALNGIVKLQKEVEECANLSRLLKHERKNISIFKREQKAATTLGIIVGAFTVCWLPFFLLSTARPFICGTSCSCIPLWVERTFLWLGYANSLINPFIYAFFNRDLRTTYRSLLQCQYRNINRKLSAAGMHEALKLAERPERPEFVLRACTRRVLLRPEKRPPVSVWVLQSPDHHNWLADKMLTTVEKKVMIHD
Source text: Receptor proteins were filtered and washed, the filters were then counted to determine [^3H]LSD specifically bound.

[4] = molecular target: human dopamine D2L receptor (Homo sapiens, UniProt P14416); assay: Dopamine D2L radioligand binding ([3H]Spiperone); details: percent inhibition of specific binding; compound at 1 μM; read-out: Inhibition of ligand binding, Dopamine D2L
human dopamine D2L receptor, sequence (P14416 whole entry): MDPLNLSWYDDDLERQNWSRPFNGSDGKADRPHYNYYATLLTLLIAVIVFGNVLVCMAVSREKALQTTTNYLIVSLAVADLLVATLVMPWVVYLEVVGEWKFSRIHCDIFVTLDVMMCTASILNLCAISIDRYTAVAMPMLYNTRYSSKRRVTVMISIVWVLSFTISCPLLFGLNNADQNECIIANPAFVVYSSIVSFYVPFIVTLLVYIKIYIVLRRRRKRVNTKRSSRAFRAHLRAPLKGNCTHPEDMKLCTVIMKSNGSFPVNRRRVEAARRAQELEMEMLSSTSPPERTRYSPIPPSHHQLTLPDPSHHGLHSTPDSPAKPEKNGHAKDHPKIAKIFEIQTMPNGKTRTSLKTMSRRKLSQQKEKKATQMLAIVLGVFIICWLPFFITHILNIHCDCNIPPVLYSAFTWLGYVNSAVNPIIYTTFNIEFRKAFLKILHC
Source text: Non-specific binding was estimated in the presence of […] Haloperidol. Receptor proteins were filtered and washed, the filters were then counted to determine [^3H]Spiperone specifically bound. […] Biochemical assay results are presented as the percent inhibition of specific binding in Table 9.

[5] = molecular target: T3, human recombinant serotonin (5-Hydroxytryptamine) 5-HT2C receptor (Homo sapiens, UniProt P28335); assay: Serotonin 5-HT2C radioligand binding ([3H]Mesulergine); details: compound at 0.1 μM; read-out: Inhibition of ligand binding, Serotonin 5-HT2C (percent inhibition of specific binding)
T3 construct: expressed in transfected cells; host or cells: Chinese hamster ovary (CHO-K1) cells
T3 sequence (P28335 33-458): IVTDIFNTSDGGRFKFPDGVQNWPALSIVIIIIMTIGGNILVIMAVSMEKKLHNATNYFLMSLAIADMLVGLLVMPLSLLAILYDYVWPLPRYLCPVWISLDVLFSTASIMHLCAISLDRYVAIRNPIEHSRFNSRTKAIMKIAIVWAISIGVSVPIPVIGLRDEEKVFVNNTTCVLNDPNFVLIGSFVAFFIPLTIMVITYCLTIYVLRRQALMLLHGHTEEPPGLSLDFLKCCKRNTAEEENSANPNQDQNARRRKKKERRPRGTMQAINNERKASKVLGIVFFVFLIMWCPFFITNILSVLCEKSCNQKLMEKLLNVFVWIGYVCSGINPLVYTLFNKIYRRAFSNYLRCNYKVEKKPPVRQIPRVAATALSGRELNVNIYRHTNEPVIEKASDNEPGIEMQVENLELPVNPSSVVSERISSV
Description: Compounds of the invention were incubated with 1 nM [^3H]Mesulergine for 60 min. at 25° C. Non-specific binding was estimated in the presence of 1 μM Mianserin. Receptor proteins were filtered and washed, the filters were then counted to determine [^3H]Mesulergine specifically bound. Compounds were screened at 1 μM or lower, using 1% DMSO as vehicle. Biochemical assay results are presented as the percent inhibition of specific binding in Table 10.

Structure (SMILES) | inhibition at 0.1 µM [1] [%] | inhibition at 1 µM (histamine receptor H1) [%] | inhibition at 0.1 µM [2] [%] | inhibition at 0.1 µM [3] [%] | inhibition at 1 µM [4] [%] | inhibition at 0.1 µM [5] [%]
C/C(=C\n1c2c(c3cccc(Cl)c31)CN(C)CC2)c1ccc(C)nc1 [Compound 252, (E)-6-chloro-2-methyl-5-(2-(6-methylpyridin-3-yl)prop-1-enyl)-2,3,4,5-tetrahydro-1H-pyrido[4,3-b]indole] | 9 | 22 | 67 | 23 | 13 | 50
C/C(=C\n1c2c(c3ccc(Cl)cc31)CN(C)CC2)c1ccc(C)nc1 [Compound 253, (E)-7-chloro-2-methyl-5-(2-(6-methylpyridin-3-yl)prop-1-enyl)-2,3,4,5-tetrahydro-1H-pyrido[4,3-b]indole] | 9 | 20 | 85 | 54 | 22 | 49
C/C(=C\n1c2c(c3ccccc31)CN(C)CC2)c1ccc(C)nc1 [Compound 254, (E)-2-methyl-5-(2-(6-methylpyridin-3-yl)prop-1-enyl)-2,3,4,5-tetrahydro-1H-pyrido[4,3-b]indole] | 15 | 7 | 65 | 63 | 11 | 52
C/C(=C\n1c2c(c3cc(F)c(F)cc31)CN(C)CC2)c1ccc(C)nc1 [Compound 255, (E)-7,8-difluoro-2-methyl-5-(2-(6-methylpyridin-3-yl)prop-1-enyl)-2,3,4,5-tetrahydro-1H-pyrido[4,3-b]indole] | 4 | 11 | 81 | 54 | 29 | 69
C/C(=C/n1c2c(c3cc(Cl)ccc31)CN(C)CC2)c1ccc(Cl)c(Cl)c1 [Compound 256, (Z)-8-chloro-5-(2-(3,4-dichlorophenyl)prop-1-enyl)-2-methyl-2,3,4,5-tetrahydro-1H-pyrido[4,3-b]indole] | 96 | 92 | 100 | 85 | 34 | 90
C/C(=C\n1c2c(c3cc(C)ccc31)CN(C)C(C)C2)c1ccncc1 (stereo not drawn) [Compound 257, (E)-2,3,8-trimethyl-5-(2-(pyridin-4-yl)prop-1-enyl)-2,3,4,5-tetrahydro-1H-pyrido[4,3-b]indole] | 71 | 18 | 94 | 75 | 72 | 94
C/C(=C\n1c2c(c3cc(C)ccc31)CN(C)C(C)C2)c1ccc(F)cc1 (stereo not drawn) [Compound 258, (E)-5-(2-(4-fluorophenyl)prop-1-enyl)-2,3,8-trimethyl-2,3,4,5-tetrahydro-1H-pyrido[4,3-b]indole] | 81 | 59 | 98 | 84 | 81 | 98
C/C(=C\n1c2c(c3cccc(F)c31)CN(C)CC2)c1ccc(C)nc1 [Compound 260, (E)-6-fluoro-2-methyl-5-(2-(6-methylpyridin-3-yl)prop-1-enyl)-2,3,4,5-tetrahydro-1H-pyrido[4,3-b]indole] | -7 | -19 | 34 | 5 | 9 | 29
C/C(=C\n1c2c(c3ccc(F)cc31)CN(C)CC2)c1ccc(C)nc1 [Compound 261, (E)-7-fluoro-2-methyl-5-(2-(6-methylpyridin-3-yl)prop-1-enyl)-2,3,4,5-tetrahydro-1H-pyrido[4,3-b]indole] | 4 | 11 | 74 | 47 | 28 | 31
C/C(=C\n1c2c(c3cc(Cl)ccc31)CN(C)C(C)C2)c1ccc(F)cc1 (stereo not drawn) [Compound 262, (E)-8-chloro-5-(2-(4-fluorophenyl)prop-1-enyl)-2,3-dimethyl-2,3,4,5-tetrahydro-1H-pyrido[4,3-b]indole] | 99 | 66 | 99 | 94 | 97 | 100
C/C(=C\n1c2c(c3cc(OC(F)(F)F)ccc31)CN(C)CC2)c1ccncc1 [Compound 263, (E)-2-methyl-5-(2-(pyridin-4-yl)prop-1-enyl)-8-(trifluoromethoxy)-2,3,4,5-tetrahydro-1H-pyrido[4,3-b]indole] | 99 | 8 | 64 | 15 | 89 | 18
Cc1ccc2c(c1)c1c(n2/C=C(\c2ccncc2)C(C)C)CCN(C)C1 [Compound 264, (Z)-2,8-dimethyl-5-(3-methyl-2-(pyridin-4-yl)but-1-enyl)-2,3,4,5-tetrahydro-1H-pyrido[4,3-b]indole] | 89 | 24 | 99 | 51 | 49 | 94
CC(C)/C(=C/n1c2c(c3cc(Cl)ccc31)CN(C)CC2)c1ccncc1 [Compound 265, (Z)-8-chloro-2-methyl-5-(3-methyl-2-(pyridin-4-yl)but-1-enyl)-2,3,4,5-tetrahydro-1H-pyrido[4,3-b]indole] | 97 | 22 | 96 | 52 | 73 | 89
CCN1CCc2c(c3ccccc3n2/C=C(\C)c2ccncc2)C1 [Compound 266, (E)-2-ethyl-5-(2-(pyridin-4-yl)prop-1-enyl)-2,3,4,5-tetrahydro-1H-pyrido[4,3-b]indole] | 81 | -1 | 67 | 18 | 94 | 12
C/C(=C\n1c2c(c3cc(C(C)C)ccc31)CN(C)CC2)c1ccncc1 [Compound 267, (E)-8-isopropyl-2-methyl-5-(2-(pyridin-4-yl)prop-1-enyl)-2,3,4,5-tetrahydro-1H-pyrido[4,3-b]indole] | 87 | 6 | 66 | 85 | 85 | 54
C/C(=C\n1c2c(c3cc(C(F)(F)F)ccc31)CN(C)CC2)c1ccc(F)cc1 [Compound 268, (E)-5-(2-(4-fluorophenyl)prop-1-enyl)-2-methyl-8-(trifluoromethyl)-2,3,4,5-tetrahydro-1H-pyrido[4,3-b]indole] | 97 | 53 | 98 | 87 | 98 | 86
CCN1CCc2c(c3cc(C)ccc3n2/C=C(\C)c2ccncc2)C1 [Compound 269, (E)-2-ethyl-8-methyl-5-(2-(pyridin-4-yl)prop-1-enyl)-2,3,4,5-tetrahydro-1H-pyrido[4,3-b]indole] | 102 | -2 | 87 | 51 | 91 | 55
